In one assay the test system is MV4-11 cells. The assay is described as follows: MV4-11 6-day cell growth CTG (CellTiter-Glo) assay. The format is cell-based. Conditions: Homo sapiens, MV4-11, 144 h, 6 days, read-out: (c) MLL/WDR5 cell proliferation assay//MLL/WDR5 proliferation MV4:11 Qualified AC50. The procedure, abridged:
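Exponentially growing MV4-11 AML cells (RPMI 1640, 10% FBS) seeded at 300 cells/well with 12-point 1:3 compound dilutions, top final concentration 50 μM. Viability read by CellTiter-Glo luminescence after 6 days at 37° C; % inhibition vs DMSO-only wells fitted to dose-response for IC50.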

The target of assay [1] is wild type MLL1 four-member complex (MLL1-4C) (Homo sapiens, UniProt P61964). Description: MLL1 LC-MS assay (SAH production). The assay is classed as biochemical. Particulars: read-out: (b) MLL LCMS Peptide Val.v.1 Qualified AC50. Summed up: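 MLL1-4C (30 nM final) was preincubated 20 min with compound (3-fold dilutions, 8 or 12 points) and SAM in Tris-HCl pH 8.0 buffer. H3K4me0 peptide (histone H3[1-21]-biotin) was then added, giving final 2.5 μM SAM and 10 μM substrate, and reactions ran 120 min at rt. After TFA/d4-SAH quench, SAH was quantified by LC-MS/MS and IC50 fitted from control-normalised activity.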

In another assay the target is WDR5 (Homo sapiens, UniProt P61964). Description: WDR5 HTRF binding assay. Conditions: read-out: (a) WDR5 HTRF Pep Val v.1[Inhibitor/IC50]Qualified AC50. Summed up:
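6 nM WDR5 and 20 nM biotin-MLL1 WIN peptide (3762-3773) were incubated with compound (12-point, 3-fold dilutions) in pH 7.5 Hepes/NaCl/DTT buffer for 20 min at rt. Streptavidin-APC plus anti-His-Eu were then added for 1 hr, with HTRF read at 665/615. IC50 was fit from control-normalized activity; the counter assay used 15 nM biotin-PEG-His peptide.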

As for `CCOc1cc(C(C)N2CCc3c(cc(CCN(C)CC)cc3-c3ccnc(F)c3C)C2=O)ncc1C#N` (stereo not drawn) [Example 141, 4-ethoxy-6-(1-(7-(2-(ethyl(methyl)amino)ethyl)-5-(2-fluoro-3-methylpyridin-4-yl)-1-oxo-3,4-dihydroisoquinolin-2(1H)-yl)ethyl)nicotinonitrile], the AC50 (with MV4-11 cells; in assay [1]) was 10 to 1000 nM in each case. Besides, the IC50 on WDR5 lay within 10 to 1000 nM.
Consider `CCOc1cc([C@H](C)N2CCc3c(cc(CCN(C)CC)cc3-c3cc(C)ncc3C(F)F)C2=O)ncc1C#N` [Example 172, (S)-6-(1-(5-(5-(difluoromethyl)-2-methylpyridin-4-yl)-7-(2-(ethyl(methyl)amino)ethyl)-1-oxo-3,4-dihydroisoquinolin-2(1H)-yl)ethyl)-4-ethoxynicotinonitrile], for which the AC50 (in the assay with MV4-11 cells; in assay [1]) was 10 to 1000 nM throughout. The IC50 on WDR5 was less than 10 nM.
On to `CNc1nccn1Cc1cc(CN2CC[C@@H](F)C2)c2c(c1)C(=O)N([C@@H](C)c1cc(OC)c(F)cn1)CC2` [Example 16], for which the AC50 (in the assay on MV4-11 cells; in assay [1]) was 10 to 1000 nM throughout. Besides, on WDR5, the IC50 lay in the range of 10 to 1000 nM.
In the case of `CCOc1cc(C(C)N2CCc3c(cc(CCN(C)CC)cc3-c3ccc(N)nc3C(F)F)C2=O)ncc1C#N` (stereo not drawn) [Example 200, 6-(1-(5-(6-amino-2-(difluoromethyl)pyridin-3-yl)-7-(2-(ethyl(methyl)amino)ethyl)-1-oxo-3,4-dihydroisoquinolin-2(1H)-yl)ethyl)-4-ethoxynicotinonitrile], the AC50 (in the assay with MV4-11 cells; in assay [1]) was 10 to 1000 nM throughout. The IC50 at WDR5 was 10 to 1000 nM.
In the case of `CCOc1cc(C(C)N2CCc3c(cc(CCN(C)CC)cc3-c3cc(Cl)cnc3C)C2=O)ncc1C#N` (stereo not drawn) [Example 197, 6-(1-(5-(5-chloro-2-methylpyridin-3-yl)-7-(2-(ethyl(methyl)amino)ethyl)-1-oxo-3,4-dihydroisoquinolin-2(1H)-yl)ethyl)-4-ethoxynicotinonitrile], the AC50 (with MV4-11 cells; in assay [1]) was 10 to 1000 nM each time. In addition, the IC50 on WDR5 fell in the range of 10 to 1000 nM.
For the compound `CCOc1cc([C@H](C)N2CCc3c(cc(Cn4cc(C)nc4C)cc3-c3cn(CCO)nc3C)C2=O)ncc1C#N` [Example 272], the AC50 (in the assay with MV4-11 cells; in assay [1]) was 10 to 1000 nM throughout. For the same compound, the IC50 on WDR5 is less than 10 nM.
Take `CCOc1cc([C@H](C)N2CCc3c(cc(CCN(C)CC)cc3-c3cc(CC#N)cnc3C)C2=O)ncc1C#N` [Example 192, (S)-6-(1-(5-(5-(cyanomethyl)-2-methylpyridin-3-yl)-7-(2-(ethyl(methyl)amino)ethyl)-1-oxo-3,4-dihydroisoquinolin-2(1H)-yl)ethyl)-4-ethoxynicotinonitrile]: the AC50 (with MV4-11 cells; in assay [1]) was 10 to 1000 nM throughout. Also, the IC50 at WDR5 is less than 10 nM.
Take `CNc1nccn1Cc1cc(CN2CCOCC2)c2c(c1)C(=O)N([C@@H](C)c1cc(OC)c(F)cn1)CC2` (single isomer, unassigned) [Example 7]: the AC50 (with MV4-11 cells; in assay [1]) was 10 to 1000 nM each time. Moreover, the IC50 at WDR5 is less than 10 nM.
For `CCOc1cc(CN2CCc3c(cc(CCN(C)CC)cc3-c3cc(C)cnc3Cl)C2=O)ncc1C#N` [Example 112, 6-((5-(2-chloro-5-methylpyridin-3-yl)-7-(2-(ethyl(methyl)amino)ethyl)-1-oxo-3,4-dihydroisoquinolin-2(1H)-yl)methyl)-4-ethoxynicotinonitrile], the AC50 (with MV4-11 cells; in assay [1]) was 10 to 1000 nM each time. For the same compound, the IC50 at WDR5 is less than 10 nM.
`CCOc1cc(C(C)N2CCc3c(cc(CCN(C)CC)cc3C(O)C(C)C(F)(F)F)C2=O)ncc1C#N` (stereo not drawn) [Example 258, 4-ethoxy-6-(1-(7-(2-(ethyl(methyl)amino)ethyl)-1-oxo-5-(3,3,3-trifluoro-1-hydroxy-2-methylpropyl)-3,4-dihydroisoquinolin-2(1H)-yl)ethyl)nicotinonitrile]: the AC50 (with MV4-11 cells; in assay [1]) was 10 to 1000 nM each time. The IC50 on WDR5 is less than 10 nM.
With `CNc1nccn1Cc1cc2c(c(-c3cc(CO)ccc3Cl)c1)CCN(Cc1ccc(F)c(OC)c1)C2=O` [Example 65, 5-(2-chloro-5-(hydroxymethyl)phenyl)-2-(4-fluoro-3-methoxybenzyl)-7-((2-(methylamino)-1H-imidazol-1-yl)methyl)-3,4-dihydroisoquinolin-1(2H)-one], the AC50 (in the assay with MV4-11 cells; in assay [1]) was 10 to 1000 nM each time. Also, the IC50 at WDR5 was in the range of 10 to 1000 nM.
Regarding `CCOc1cc([C@H](C)N2CCc3c(cc(CCN(C)CC)cc3-c3cn(CC)nc3C)C2=O)ncc1C#N` [Example 127, (S)-4-ethoxy-6-(1-(7-(2-(ethyl(methyl)amino)ethyl)-5-(1-ethyl-3-methyl-1H-pyrazol-4-yl)-1-oxo-3,4-dihydroisoquinolin-2(1H)-yl)ethyl)nicotinonitrile], the AC50 (in the assay on MV4-11 cells; in assay [1]) was 10 to 1000 nM throughout. The IC50 at WDR5 was less than 10 nM.
Consider `CCOc1cc(CN2CCc3c(cc(CCN(C)CC)cc3-c3ccc(F)nc3C)C2=O)ncc1C#N` [Example 130, 4-ethoxy-6-((7-(2-(ethyl(methyl)amino)ethyl)-5-(6-fluoro-2-methylpyridin-3-yl)-1-oxo-3,4-dihydroisoquinolin-2(1H)-yl)methyl)nicotinonitrile], for which the AC50 (with MV4-11 cells; in assay [1]) was 10 to 1000 nM in each case. Also, at WDR5, the IC50 was less than 10 nM.
With `CCOc1cc([C@H](C)N2CCc3c(cc(Cn4cnc(C)c4)cc3-c3cn(C)nc3C)C2=O)ncc1C#N` [Example 276], the AC50 (in the assay with MV4-11 cells; in assay [1]) was 10 to 1000 nM each time. Further, the IC50 at WDR5 was less than 10 nM.
On to `CCOc1cc([C@H](C)N2CCc3c(cc(CCN(C)CC)cc3-c3cc(C(C)(C)O)ncc3C)C2=O)ncc1C#N` [Example 184, (S)-4-ethoxy-6-(1-(7-(2-(ethyl(methyl)amino)ethyl)-5-(2-(2-hydroxypropan-2-yl)-5-methylpyridin-4-yl)-1-oxo-3,4-dihydroisoquinolin-2(1H)-yl)ethyl)nicotinonitrile], for which the AC50 (with MV4-11 cells; in assay [1]) was 10 to 1000 nM each time. Further, the IC50 on WDR5 is less than 10 nM.
Take `CCOc1cc([C@H](C)N2CCc3c(cc(CCN(C)CC)cc3-c3cn(C)nc3C)C2=O)ncc1C#N` [Example 134, (S)-6-(1-(5-(1,3-dimethyl-1H-pyrazol-4-yl)-7-(2-(ethyl(methyl)amino)ethyl)-1-oxo-3,4-dihydroisoquinolin-2(1H)-yl)ethyl)-4-ethoxynicotinonitrile]: the AC50 (in the assay on MV4-11 cells; in assay [1]) was 10 to 1000 nM each time. Moreover, the IC50 on WDR5 was less than 10 nM.
On to `CCOc1cc([C@H](C)N2CCc3c(CN(C)C)cc(Cn4ccnc4NC)cc3C2=O)ncc1F` (single isomer, unassigned) [Example 19], for which the AC50 (with MV4-11 cells; in assay [1]) was 10 to 1000 nM in each case. In addition, the IC50 on WDR5 fell in the range of 10 to 1000 nM.
Turning to `CNc1nccn1Cc1cc2c(c(-c3cc(CO)cnc3Cl)c1)CCN(Cc1ccc(F)c(F)c1)C2=O` [Example 70, 5-(2-chloro-5-(hydroxymethyl)pyridin-3-yl)-2-(3,4-difluorobenzyl)-7-((2-(methylamino)-1H-imidazol-1-yl)methyl)-3,4-dihydroisoquinolin-1(2H)-one], the AC50 (with MV4-11 cells; in assay [1]) was 10 to 1000 nM in each case. The IC50 at WDR5 lay within 10 to 1000 nM.
Regarding `CNc1nccn1Cc1cc2c(c(N3CCCC3)c1)CCN([C@@H](C)c1cc(OC)c(F)cn1)C2=O` [Example 89, (S)-2-(1-(5-fluoro-4-methoxypyridin-2-yl)ethyl)-7-((2-(methylamino)-1H-imidazol-1-yl)methyl)-5-(pyrrolidin-1-yl)-3,4-dihydroisoquinolin-1(2H)-one], the AC50 (in the assay on MV4-11 cells; in assay [1]) was 10 to 1000 nM throughout. For the same compound, the IC50 at WDR5 was less than 10 nM.
Turning to `CNc1nccn1Cc1cc2c(c(-c3cc(CO)cnc3Cl)c1)CCN([C@H](C)c1ccc(F)c(OC)c1)C2=O` [Example 57, (R)-5-(2-chloro-5-(hydroxymethyl)pyridin-3-yl)-2-(1-(4-fluoro-3-methoxyphenyl)ethyl)-7-((2-(methylamino)-1H-imidazol-1-yl)methyl)-3,4-dihydroisoquinolin-1(2H)-one], the AC50 (with MV4-11 cells; in assay [1]) was 10 to 1000 nM each time. Further, the IC50 on WDR5 was 10 to 1000 nM.
For the compound `CNc1nccn1Cc1cc(-c2cc(CO)cnc2Cl)c2ccn(Cc3ccc(OC)cc3)c(=O)c2c1` [Example 105, 5-(2-chloro-5-(hydroxymethyl)pyridin-3-yl)-2-(4-methoxybenzyl)-7-((2-(methylamino)-1H-imidazol-1-yl)methyl)isoquinolin-1(2H)-one], the AC50 (with MV4-11 cells; in assay [1]) was 10 to 1000 nM throughout. Further, at WDR5, the IC50 is 10 to 1000 nM.
Consider `CCOc1cc(C(C)N2CCc3c(cc(CCN(C)CC)cc3-c3cc(Cl)nnc3C)C2=O)ncc1C#N` (stereo not drawn) [Example 203, 6-(1-(5-(6-chloro-3-methylpyridazin-4-yI)-7-(2-(ethyl(methyl)amino)ethyl)-1-oxo-3,4-dihydroisoquinolin-2(1H)-yl)ethyl)-4-ethoxynicotinonitrile], for which the AC50 (in the assay with MV4-11 cells; in assay [1]) was 10 to 1000 nM in each case. Besides, at WDR5, the IC50 fell in the range of 10 to 1000 nM.

These data come from patent US20220289732A1, “HETEROCYCLIC WDR5 INHIBITORS AS ANTI-CANCER COMPOUNDS” (NOVARTIS AG, priority 2019, published 2022).
